# Test results: ChEMBL document CHEMBL3507680, “University of Dundee, Gates Library screen for HepG2 cell viability”
# Test: Human HepG2 cell viability assay in 384 well format
# Type: toxicity, cell-based
# Parameters: dose 125 nL, time 70.5 hour; cytotoxicity at 70.5 h: concentration not given beside the values
# Details: HepG2 cells, read-out: Inhibition
row,SMILES,cytotoxicity at 70.5 h
1,Cc1cn2c(n1)CCC(NC(=O)c1csc(C(C)C)n1)C2 (centres undefined),-0.273%
2,CCc1nc(C2CCCN(C(=O)C(C)(C)NS(C)(=O)=O)C2)no1 (centres undefined),0.741%
3,CN(C)c1cc(C(=O)N2CCCN(Cc3cscn3)CC2)ccn1,-8.49%
4,CCC(O)CN1CCN(C(=O)c2sccc2OC)CC1 (centres undefined),0.647%
5,O=S(=O)(NCCN1CCCCC1Cn1cncn1)c1ccccc1 (centres undefined),-3.24%
6,CCN(Cc1cccc2c1OCO2)C(=O)C(C)c1cccnc1 (centres undefined),1.7%
7,Cc1cc(CN(C)C(=O)NCC(C)N2CCc3ccccc32)no1 (centres undefined),-2.66%
8,CN(Cc1cccc(F)c1)C(=O)CN1CCOC(Cn2cccn2)C1 (centres undefined),-2.5%
9,CC(=O)N1CCN(C(=O)CN2CCc3c(ncn3C3CC3)C2)CC1,6.66%
10,OCC1CCCN1c1cc(NCc2ccc(Cl)s2)ncn1 (centres undefined),-2.35%
11,CC(=O)N(Cc1noc(C)n1)C1CCN(Cc2ccon2)C1 (centres undefined),37.1%
12,O=C(NCc1csc(Br)c1)c1ccncc1,-16.8%
13,CC(C)c1nnc(NC(=O)NCc2ccnc(N(C)C)c2)s1,-19.1%
14,Cc1cnn(C2CCCN(C(=O)Cc3cn4ccccc4n3)C2)c1 (centres undefined),-12.4%
15,Cn1ccc(CN2CCC(CO)CC2)cc1=O,-9.02%
16,Cc1cn2nc(N3CCCC3Cn3nc(C)cc3C)sc2n1 (centres undefined),-7.66%
17,Cc1nn(C)c(C)c1C1CCCN1Cc1nc(C)c2ccccc2n1 (centres undefined),5.7%
18,O=C(CN1CCc2c(ncn2C2CC2)C1)NC1CC1,-23.8%
19,CCc1n[nH]c(C2CN(C(=O)CCc3cccs3)CCO2)n1 (centres undefined),13.9%
20,Cc1ncc(CN(C)CC2CCCN2c2cccnn2)s1 (centres undefined),8.83%

row,SMILES,cytotoxicity at 70.5 h
1,c1cnnc(N2CCCC2CNCc2cnc(N3CCCC3)nc2)c1 (centres undefined),-7.83%
2,c1ccc(Cn2cc(CNC3CCc4ncnn4C3)cn2)cc1 (centres undefined),-7.61%
3,O=C(c1csc(Br)c1)N1CCCC(n2ccnc2)C1 (centres undefined),12.4%
4,Cc1csc(C2CCCCN2C(=O)CN(C)Cc2ccccc2)n1 (centres undefined),-8.36%
5,COc1ccc(CN2CCCC(Cn3nc(C)nc3C)C2)cc1F (centres undefined),-8.47%
6,Cc1oc(C)c(C(=O)NCc2cccc(NC(=O)CN(C)C)c2)c1C,-8.3%
7,CC(=O)N(Cc1noc(C)n1)C1CCN(Cc2ccccc2C#N)C1 (centres undefined),-5.45%
8,O=C(c1ccccc1OCC1CC1)N1CCCC(n2ccnc2)C1 (centres undefined),-9.12%
9,Cc1ccc(N2CCCC(NCc3ccc(C)o3)C2)nn1 (centres undefined),-7.71%
10,CCCn1[nH]cc/c1=N\C(=O)CN1CCc2c(nc(C(C)C)n2C)C1,18%
11,Cc1cccc(-n2cc(C(=O)N3CCCC(n4ccnc4)C3)nn2)c1 (centres undefined),15.2%
12,CC(C)c1nc2c(n1C)CCN(CC(=O)Nc1ccc(Cl)cn1)C2,-14.9%
13,COc1ccc(CC(=O)N(C)Cc2nnc3ccccn23)cc1,-17.4%
14,Cc1cccc(-n2cc(C(=O)N3CCCC(n4cccn4)C3)nn2)c1 (centres undefined),-13.8%
15,Cc1cc(CN2CCN(C(=O)c3sccc3C3CC3)CC2)on1,-13.6%
16,O=C1NCCN1C1CCN(CCc2cccs2)CC1,-11.4%
17,CCN(Cc1nc2c(cnn2C)c(=O)[nH]1)Cc1cccs1,-7.33%
18,CCc1ccc(OCC(O)CN2CCN(S(C)(=O)=O)CC2)cc1 (centres undefined),-5.82%
19,CC(Cn1cccn1)NC(=O)CCc1ccc(S(N)(=O)=O)cc1 (centres undefined),-15.1%
20,COc1ccc(C(=O)NCCc2nnc3ccccn23)c(OC)c1,8%

row,SMILES,cytotoxicity at 70.5 h
1,Cc1cnn(CC2CCCN2C(=O)c2cc3ccccc3[nH]2)c1 (centres undefined),8.1%
2,O=C(CCc1cccs1)N1CCCCC1Cn1cccn1 (centres undefined),-5.08%
3,COc1ccc(CNC(=O)NC(C)Cn2cccn2)cc1O (centres undefined),-16.1%
4,CCc1n[nH]c(C2CN(C(=O)c3csnn3)CCO2)n1 (centres undefined),-18.6%
5,CCN1CCN(C2CCN(Cc3ncc(C(C)(C)C)o3)CC2)C1=O,-8.55%
6,COc1c(CNCC(O)c2cccc(F)c2)c(C(C)C)nn1C (centres undefined),2.55%
7,CC(=O)N(Cc1noc(C)n1)C1CCN(Cc2cc(C)on2)C1 (centres undefined),-2.83%
8,CCc1nc(CN2CCCC(NCc3ncc(C(C)(C)C)o3)C2)no1 (centres undefined),8.8%
9,CCc1nc(CN2CCCC(NCc3nnc(C4CC4)o3)C2)no1 (centres undefined),0.376%
10,CC(=O)N(Cc1ncc(C)o1)C1CCN(Cc2ccncc2Cl)C1 (centres undefined),-1.73%
11,CC(=O)N(Cc1ncc(C)o1)C1CCN(Cc2noc(C)n2)C1 (centres undefined),-5.31%
12,CN(C)c1cc(CNC(=O)c2ccc(=O)[nH]n2)ccn1,1.83%
13,O=C(NCCNc1ccc(C(F)(F)F)cn1)c1ccc(Br)cc1F,17.1%
14,Cn1cnnc1C1CCCN(C(=O)c2n[nH]c3ccccc23)C1 (centres undefined),4.38%
15,CC(CNC(=O)Nc1cn[nH]c1)N1CCc2ccccc2C1 (centres undefined),-7.18%
16,CCn1cnnc1CNC(=O)N1CCCN(C(C)=O)CC1,-11.8%
17,CS(=O)(=O)NC1CCCN(C(=O)NCc2cc[nH]n2)C1 (centres undefined),10.8%
18,O=C(CCc1nccs1)N1CCN(c2cccnn2)CC1,-3.92%
19,O=C(CCc1nccs1)N1CCN(c2ccc(Br)cn2)CC1,22.4%
